For 22 molecules, IC50 results are on record in US11332472B2, “Substituted piperidines as inhibitors of ubiquitin specific protease 7” (LES LABORATOIRES SERVIER, priority 2017, dated 2022).

As usually defined, the IC50 is the point on the concentration scale where inhibition reaches its midpoint. A low value points to greater potency.

The target in assay [1] is T1, USP7 (Homo sapiens, UniProt Q93009, C315A).
T1 construct: 0.25 nM His-His-USP7 (aa208-560, [C315A]) was incubated with compound; His-His (N)
T1 sequence (Q93009 208-560 C315A): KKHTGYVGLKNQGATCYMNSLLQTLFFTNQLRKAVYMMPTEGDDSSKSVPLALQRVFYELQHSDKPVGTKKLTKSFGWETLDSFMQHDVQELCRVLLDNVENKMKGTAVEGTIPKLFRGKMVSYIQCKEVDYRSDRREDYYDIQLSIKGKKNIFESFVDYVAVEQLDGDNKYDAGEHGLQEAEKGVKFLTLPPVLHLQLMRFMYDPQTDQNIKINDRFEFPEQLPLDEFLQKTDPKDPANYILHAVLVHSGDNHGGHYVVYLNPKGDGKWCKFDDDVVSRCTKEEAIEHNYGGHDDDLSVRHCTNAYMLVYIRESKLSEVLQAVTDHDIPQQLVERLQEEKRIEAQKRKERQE
Put plainly: Inhibition of USP7 by Fluorescence Intensity (FLINT) readings, Ubiquitin-Rhodamine-110 substrate. The class given is biochemical. The conditions noted are these: 0.25 nM His-His-USP7 (aa208-560, [C315A]); compound 60 minutes at 30° C.; 500 nM Ubiquitin-Rhodamine substrate; 11-point curves. In short, it runs like this:
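His-His-USP7 (aa208-560, C315A) at 0.25 nM was preincubated with compound for 60 min at 30 °C in 100 mM Bicine pH 8.0, 0.01% Triton X-100, 1 mM TCEP, 10% DMSO. 500 nM ubiquitin-rhodamine-110 was then added, with fluorescence (Ex 485/Em 535 nm) read every 3 min for 21 min. IC50 came from kinetic-rate inhibition, 11-point curves, 4-parameter fit.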

The subject of assay [2] is MM 1S multiple myeloma tumour cell line. Briefly: In vitro cytotoxicity, MTT assay, MM1S cells. The assay is classed as cell-based. The note with it: Homo sapiens, MM1.S, 96 hours exposure. The method, then: The cytotoxicity studies were evaluated by MTT assay and carried out on MM 1S multiple myeloma or Z138 mantle cell lymphoma tumour cell lines. The cells are distributed onto microplates and exposed to the test compounds for 96 hours. The cell viability is then quantified by a colorimetric assay, the Microculture Tetrazolium Assay (Carmichael et. al., Cancer Res. […], 47, 936-942).

On to `O=C([C@@H]1CCCC[C@H]1n1cccc1)N1CCC(O)(Cn2cnc3c(ccn3-c3ccccc3)c2=O)CC1` (racemic) [Example 12, 3-[[4-hydroxy-1-[trans-2-pyrrol-1-ylcyclohexanecarbonyl]-4-piperidyl]methyl]-7-phenyl-pyrrolo[2,3-d]pyrimidin-4-one], for which the IC50 in assay [1] was found to be 71.1 nM; in assay [2], 34.5 nM. On to `COc1ccc(-n2ccc3c(=O)n(CC4(O)CCN(C(=O)[C@@H]5CCCC[C@H]5n5cccc5)CC4)cnc32)cc1` (racemic) [Example 15], for which the IC50 is 26.1 nM in assay [1] and 8.76 nM in assay [2]. Consider `O=C([C@@H]1CCCC[C@H]1c1ccccc1)N1CCC(O)(Cn2cnc3c(ccn3-c3ccccc3)c2=O)CC1` (relative stereo) [Example 9, 3-[[4-hydroxy-1-(trans-2-phenylcyclohexanecarbonyl)-4-piperidyl]methyl]-7-phenyl-pyrrolo[2,3-d]pyrimidin-4-one], for which the results for the IC50 in assay [1] and in assay [2] were 35.9 nM and 13.9 nM, respectively. On to `O=C([C@@H]1CCCC[C@H]1c1ccccc1)N1CCC(O)(Cn2cnc3c(nnn3-c3ccccc3)c2=O)CC1` (relative stereo) [Example 18, 6-[[4-hydroxy-1-(trans-2-phenylcyclohexanecarbonyl)-4-piperidyl]methyl]-3-phenyl-triazolo[4,5-d]pyrimidin-7-one], for which the IC50 worked out at 50.6 nM in assay [1] and 636 nM in assay [2].

Regarding `O=C([C@@H]1CCCC[C@H]1c1ccccc1)N1CCC(O)(Cn2cnc3c(cnn3-c3ccccc3)c2=O)CC1` (relative stereo) [Example 19, 5-[[4-hydroxy-1-(trans-2-phenylcyclohexanecarbonyl)-4-piperidyl]methyl]-1-phenyl-pyrazolo[3,4-d]pyrimidin-4-one], the IC50 in assay [1] is 14.3 nM; in assay [2], 195 nM. The like results for `O=C([C@@H]1CCCC[C@H]1c1ccccc1)N1CCC(O)(Cn2cnc3c(ncn3-c3ccccc3)c2=O)CC1` (relative stereo) [Example 20, 1-[[4-hydroxy-1-(trans-2-phenylcyclohexanecarbonyl)-4-piperidyl]methyl]-9-phenyl-purin-6-one] were, in that order, 29.3 nM and 210 nM.

For `COc1ccc(-n2ccc3c(=O)n(CC4(O)CCN(C(=O)[C@@H]5CCCC[C@H]5c5ccccc5)CC4)cnc32)cc1` (relative stereo) [Example 21, 3-[[4-hydroxy-1-(trans-2-phenylcyclohexanecarbonyl) 4-piperidyl]methyl]-7-(4-methoxyphenyl)pyrrolo[2,3-d]pyrimidin-4-one], the IC50 in assay [1] turned out to be 26.9 nM; in assay [2], 3.4 nM.

As to `O=C([C@@H]1CCCC[C@H]1c1ccccc1)N1CCC(O)(Cn2cnc3c(ccn3-c3ccc(Cl)cc3)c2=O)CC1` (relative stereo) [Example 22, 7-(4-chlorophenyl)-3-[[4-hydroxy-1-(trans-2-phenylcyclohexanecarbonyl)-4-piperidyl]methyl]pyrrolo[2,3-d]pyrimidin-4-one], the half-inhibitory concentration (IC50) amounted to 31.6 nM in assay [1] and 9.88 nM in assay [2]. The like results for `O=C([C@@H]1CCCC[C@H]1c1ccccc1)N1CCC(O)(Cn2cnc3c(ccn3-c3ccsc3)c2=O)CC1` (relative stereo) [Example 23, 3-[[4-hydroxy-1-(trans-2-phenylcyclohexanecarbonyl)-4-piperidyl]methyl]-7-(3-thienyl)pyrrolo[2,3-d]pyrimidin-4-one] were, in that order, 17.2 nM and 70.1 nM. In the same order, the values of `COc1ccc(-n2ccc3c(=O)n(CC4(O)CCN(C(=O)[C@@H]5CCCO[C@H]5c5ccccc5)CC4)cnc32)cc1` (relative stereo) [Example 24, 3-[[4-hydroxy-1-[trans-2-phenyltetrahydropyran-3-carbonyl]-4-piperidyl]methyl]-7-(4-methoxyphenyl)pyrrolo[2,3-d]pyrimidin-4-one] are 217 nM and 146 nM. The like results for `O=C([C@@H]1CCCC(F)(F)[C@H]1c1ccccc1)N1CCC(O)(Cn2cnc3c(ccn3-c3ccccc3)c2=O)CC1` (relative stereo) [Example 52, 3-[[1-[trans-3,3-difluoro-2-phenyl-cyclohexanecarbonyl]-4-hydroxy-4-piperidyl]methyl]-7-phenyl-pyrrolo[2,3-d]pyrimidin-4-one] were, in that order, 71.8 nM and 100 nM. `O=C([C@@H]1CCCC[C@H]1c1ccccc1)N1CCC(O)(Cn2cnc3[nH]ccc3c2=O)CC1` (relative stereo) [Example 92, 3-[[4-hydroxy-1-(trans-2-phenylcyclohexanecarbonyl)-4-piperidyl]methyl]-7H-pyrrolo[2,3-d]pyrimidin-4-one]: the IC50 in assay [1] came to 124 nM; in assay [2], 523 nM. In the same order, the values of `O=C(Cc1ccc2c(c1)NC(=O)C2)Nc1ccc2ncn(CC3(O)CCN(C(=O)[C@@H]4CCCC[C@H]4c4ccccc4)CC3)c(=O)c2n1` (relative stereo) [Example 102, N-[3-[[4-hydroxy-1-(trans-2-phenylcyclohexanecarbonyl)-4-piperidyl]methyl]-4-oxo-pyrido[3,2-d]pyrimidin-6-yl]-2-(2-oxoindolin-6-yl)acetamide] are 15.8 nM and 5390 nM.

As for `COc1ccc(-n2ccc3c(=O)n(CC4(O)CCN(C(=O)[C@@H]5CCCC[C@H]5n5cccc5)CC4)cnc32)cc1` (single isomer, unassigned) [Example 17, 3-[[4-hydroxy-1-[trans-2-pyrrol-1-ylcyclohexanecarbonyl]-4-piperidyl]methyl]-7-(4-methoxyphenyl)pyrrolo[2,3-d]pyrimidin-4-one], the concentration for half-maximal inhibition (IC50) in assay [1] came out at 33.5 nM; in assay [2], 4.21 nM.

As for `CN1C(=O)CC[C@@H](C(=O)N2CCC(O)(Cn3cnc4c(ccn4-c4ccccc4)c3=O)CC2)[C@@H]1c1ccccc1` (single isomer, unassigned) [Example 27, 3-[[4-hydroxy-1-[trans-1-methyl-6-oxo-2-phenyl-piperidine-3-carbonyl]-4-piperidyl]methyl]-7-phenyl-pyrrolo[2,3-d]pyrimidin-4-one], the half-inhibitory concentration (IC50) was determined as 31.5 nM in assay [1] and 46.5 nM in assay [2].

As for `COc1ccc(-n2ccc3c(=O)n(CC4(O)CCN(C(=O)[C@@H]5CC(F)(F)CC[C@H]5c5ccccc5)CC4)cnc32)cc1` (single isomer, unassigned) [Example 30, 3-[[1-[trans-5,5-difluoro-2-phenyl-cyclohexanecarbonyl]-4-hydroxy-4-piperidyl]methyl]-7-(4-methoxyphenyl)pyrrolo[2,3-d]pyrimidin-4-one], the concentration for half-maximal inhibition (IC50) amounted to 15.9 nM in assay [1] and 10.8 nM in assay [2]. The like results for `O=C([C@@H]1CC(F)(F)CC[C@H]1c1ccccc1)N1CCC(O)(Cn2cnc3c(ccn3-c3ccccc3)c2=O)CC1` (single isomer, unassigned) [Example 32, 3-[[1-[trans-5,5-difluoro-2-phenyl-cyclohexanecarbonyl]-4-hydroxy-4-piperidyl]methyl]-7-phenyl-pyrrolo[2,3-d]pyrimidin-4-one] were, in that order, 35.3 nM and 15.8 nM.

For `O=C([C@@H]1CCC(F)(F)C[C@H]1c1ccccc1)N1CCC(O)(Cn2cnc3c(ccn3-c3ccccc3)c2=O)CC1` (single isomer, unassigned) [Example 36, 3-[[1-[trans-4,4-difluoro-2-phenyl-cyclohexanecarbonyl]-4-hydroxy-4-piperidyl]methyl]-7-phenyl-pyrrolo[2,3-d]pyrimidin-4-one], the IC50 in assay [1] turned out to be 75.3 nM; in assay [2] it was 126 nM. In the case of `COc1ccc(-n2ccc3c(=O)n(CC4(O)CCN(C(=O)[C@@H]5CCCC[C@H]5c5ccc(F)cc5)CC4)cnc32)cc1` (single isomer, unassigned) [Example 41, 3-[[1-[trans-2-(4-fluorophenyl)cyclohexanecarbonyl]-4-hydroxy-4-piperidyl]methyl]-7-(4-methoxyphenyl)pyrrolo[2,3-d]pyrimidin-4-one], the half-maximal inhibitory concentration (IC50) in assay [1] was found to be 13 nM; in assay [2], 7.22 nM. In the same order, the values of `O=C([C@@H]1CCCC[C@H]1c1ccc(F)cc1)N1CCC(O)(Cn2cnc3c(ccn3-c3ccccc3)c2=O)CC1` (single isomer, unassigned) [Example 43, 3-[[1-[trans-2-(4-fluorophenyl)cyclohexanecarbonyl]-4-hydroxy-4-piperidyl]methyl]-7-phenyl-pyrrolo[2,3-d]pyrimidin-4-one] are 9.81 nM and 32.3 nM. In the same order, the values of `COc1ccc(-n2ccc3c(=O)n(CC4(O)CCN(C(=O)[C@@H]5CCC(F)(F)C[C@H]5c5ccoc5)CC4)cnc32)cc1` (single isomer, unassigned) [Example 75, 3-[[1-[trans-4,4-difluoro-2-(3-furyl)cyclohexanecarbonyl]-4-hydroxy-4-piperidyl]methyl]-7-(4-methoxyphenyl)pyrrolo[2,3-d]pyrimidin-4-one] are 59.1 nM and 3.29 nM. In turn, `O=C(Cc1c[nH]c2ccc(O)cc12)Nc1ccc2ncn(CC3(O)CCN(C(=O)C4CCCCC4c4ccccc4)CC3)c(=O)c2n1` (stereo not drawn) [Example 105, 2-(5-hydroxy-1H-idol-3-yl)-N-[3-[[4-hydroxy-1-(trans-2-phenylcyclohexanecarbonyl)-4-piperidyl]methyl]-4-oxo-pyrido[3,2-d]pyrimidin-6-yl]acetamide] gave an IC50 in assay [1] of 15.3 nM.
